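48-hour exposure; five concentrations; linearly interpolated endpoints. GI50: concentration for 50% inhibition of growth.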 Calls of active or inactive are those of the source. Cut-off read from the data, not from the text of the source: active = GI50 up to about 1.1 µM and inactive = higher.
Columns and labels:
Test in all cases: growth of human tumour cells (NCI), 48 h
[1] = tested on: OVCAR-8
[2] = tested on: SNB-75
[3] = tested on: MDA-MB-231
[4] = tested on: KM12
[5] = tested on: PC-3
[6] = tested on: SF-295
[7] = tested on: NCI-H23
[8] = tested on: SF-539
[9] = tested on: 786-0
[10] = tested on: COLO 205
[11] = tested on: NCI-H226
[12] = tested on: NCI-H522
[13] = tested on: HOP-62
[14] = tested on: MOLT-4
[15] = tested on: M14
[16] = tested on: Hs-578T
[17] = tested on: RPMI-8226
[18] = tested on: SK-OV-3
[19] = tested on: OVCAR-3
[20] = tested on: CAKI-1
[21] = tested on: SNB-19
[22] = tested on: TK-10
[23] = tested on: A549
[24] = tested on: MDA-N
[25] = tested on: A498
[26] = tested on: SF-268
[27] = tested on: T47D
[28] = tested on: SK-MEL-2
[29] = tested on: IGROV-1
[30] = tested on: RXF 393
[31] = tested on: SK-MEL-28
[32] = tested on: Malme-3M
[33] = tested on: NCI-H460
[34] = tested on: MCF7
[35] = tested on: HCT-15
[36] = tested on: HCC 2998
[37] = tested on: BT-549
[38] = tested on: ACHN
[39] = tested on: U-251
[40] = tested on: NCI/ADR-RES
[41] = tested on: HCT-116
[42] = tested on: SN12C
[43] = tested on: OVCAR-4
[44] = tested on: UACC-257
[45] = tested on: CCRF-CEM
[46] = tested on: OVCAR-5
[47] = tested on: HT-29
[48] = tested on: UACC-62
[49] = tested on: K562
[50] = tested on: UO-31
[51] = tested on: HOP-92
[52] = tested on: LOX IMVI
[53] = tested on: SR
[54] = tested on: DU-145
[55] = tested on: SW-620
[56] = tested on: SK-MEL-5
[57] = tested on: MDA-MB-435
[58] = tested on: EKVX
[59] = tested on: HL-60

Measured: GI50

CCCCCC/C=C\CCCCCCCCCC1=CC(=O)C=C(OC)C1=O [IRISQUINONE A]
active: [1] 0.593 µM | [39] 0.713 µM | [49] 0.753 µM
2.1 µM: [35]
inactive: [2] 2.43 µM | [3] 4.36 µM | [4] 3.75 µM | [5] 1.81 µM | [6] 3.6 µM | [7] 3.37 µM | [8] 2.05 µM | [9] 4.68 µM | [10] 1.63 µM | [11] 2.52 µM | [12] 2 µM | [13] 3.48 µM | [14] 3.79 µM | [15] 4.19 µM | [16] 7.36 µM | [17] 2.21 µM | [18] 4.36 µM | [19] 3.98 µM | [20] 3.48 µM | [21] 2.89 µM | [22] 6.05 µM | [23] 4.06 µM | [24] 6.5 µM | [25] 5.82 µM | [26] 5.93 µM | [27] 2.23 µM | [28] 4.34 µM | [29] 2.23 µM | [30] 3.01 µM | [31] 11.5 µM | [32] 12.3 µM | [33] 2.72 µM | [34] 4.46 µM | [36] 8.24 µM | [37] 2.16 µM | [38] 3.18 µM | [40] 3.8 µM | [41] 3.43 µM | [42] 3.03 µM | [43] 2.05 µM | [44] 3.28 µM | [45] 1.57 µM | [46] 5.6 µM | [47] 3.19 µM | [48] 4.05 µM | [50] 4.57 µM | [51] 2.52 µM | [52] 4.06 µM | [53] 2.72 µM | [54] 5.62 µM | [55] 4.6 µM | [56] 2.54 µM | [57] 3.81 µM | [58] 3.57 µM | [59] 1.88 µM
